Source: patent US20040014772A1, “Compositions and methods for treating glomerular disorders” (priority 2000, published 2004)
“Also recorded” adds a separate entry of the source.

Assays:
[1] = test system: glomerular epithelial cells GEC; test: PAN-induced cytotoxicity to GEC (trypan blue exclusion, LDH release); format: cell-based, rat; conditions: PAN 1.5 mM 48 h; preincubation CM 2 mM, PB 25 μM, RN 1 mM, PIP 0.2 mM, pyruvate 10 mM
Protocol: Rat GEC (kindly provided by both Dr. Saulo Klahr, Washington University School of Medicine, St. Louis, Mo., and Dr. […], University of Texas Health Science Center, San Antonio, Tex.) were maintained in RPMI-1640 medium supplemented with 10% FBS, 15 mM HEPES, insulin, penicillin, streptomycin and L-glutamine in a humidified atmosphere of 95% air-5% CO2 at 37° C. and fed at intervals of 3 days ([…] et al, 1995, Biochem. Biophys. 318(2):286-294). The cells were maintained in 75 Cm^2 tissue culture flasks and the monolayers were subcultured using 0.05% trypsin-0.53 mM EDTA in Hank's balanced salt solution (HBSS). For the experimental study, the cells were grown in 12-well tissue culture plate until confluence. On the day of experiment, the medium was discarded and the confluent GEC monolayer was washed twice with HBSS. The cells were then incubated with various concentrations of PAN (0, 0.1, 0.5, 1.0, 1.5, and 2.0 mM in HBSS) for different periods of time (0, 6 hours, 1 day, 2 days, 3 days and 4 days) at 37° C. At the end of the incubation, the incubation medium was discarded and the GEC monolayer was harvested by trypsinization with 0.05% trypsin-0.53 mM EDTA for 5 min at 37° C. Isolated cells were suspended in HBSS to give about 10^6 cells/ml. PAN-induced cytotoxicity to GEC was measured by the trypan blue exclusion assay (Baliga et al, 1996, Kidney Intl. 50:1118-1124) and lactate dehydrogenase (LDH) release assay (Baliga et al., 1998, Kidney Intl. 53:394-401.). The latter is the percentage of LDH released into the medium, to total LDH recovered from both medium and cellular fraction. […] After the incubation, the cell monolayers were washed twice with HBSS and then incubated with cytotoxic dose of PAN in HBSS for a period of time necessary to induce consistent cytotoxicity ([…], 48 h, based on the concentration and time course studies) at 37° C. PAN induced cytotoxicity on GEC was measured by trypan blue exclusion assay.

[2] = test system: microsomal CYP isolated from GEC; test: H2O2 generation and catalytic iron release from microsomes isolated from GEC; format: biochemical, rat; parameters: H2O2 generation from GEC microsomal fraction: dose or concentration left out as unconfirmed
Protocol: The generation of H2O2 and catalytic iron from microsomal CYP isolated from GEC was also analyzed.

CN(C)c1ncnc2c1ncn2[C@@H]1O[C@H](CO)[C@@H](N)[C@H]1O [PAN, puromycin aminonucleoside]
PAN-induced cytotoxicity to GEC [1]: cytotoxic; also recorded: cell death in a time and dose dependent manner | H2O2 generation from GEC microsomal fraction ([2]; PAN): H2O2 generation in a time dependent fashion | catalytic iron release from GEC microsomal fraction ([2]; PAN 91.5 mM) as printed): marked increase
